Results published in ChEMBL document CHEMBL5154882, “Discovery of 4-Hydroxyquinazoline Derivatives as Small Molecular BET/PARP1 Inhibitors That Induce Defective Homologous Recombination and Lead to Synthetic Lethality for Triple-Negative Breast Cancer Therapy” (J Med Chem, 2022).
The source made the active and inactive calls. No cut-off for these calls is given here.

How the values were obtained:
[1] = AUC (0 to t) in Sprague-Dawley rat at 1 mg/kg, iv; format: ADME, organism-based; design: dose 1 mg/kg, route iv; settings: in vivo
MDA-MB-468 [2] = test: Inhibition of clone formation in human MDA-MB-468 cells measured after 10 days by crystal violet staining based analysis; format: functional, cell-based; settings: dose 5-20 µM, time 10.0 day, DDE = dose-dependent effect
MDA-MB-468 [3] = test: Inhibition of homologous recombinant repair in human MDA-MB-468 cells assessed as down-regulation of p-RPA32 expression at 5 to 20 uM in by Western blot analysis; format: functional, cell-based; settings: dose 5-20 µM
[4] = Cmax in Sprague-Dawley rat at 10 mg/kg, po; format: ADME, organism-based; design: dose 10 mg/kg, route po; settings: in vivo
MDA-MB-231 [5] = test: Antitumor activity against human MDA-MB-231 cells xenografted in BALB/c nude mouse assessed as downregulation of CtIP at 80 mg/kg by Western blot analysis; format: functional, organism-based
MDA-MB-468 [6] = test: Cell cycle arrest in human MDA-MB-468 cells assessed as accumulation at S phase at 5 uM incubated for 72 hrs by propidium iodide staining-based flow cytometry analysis (reference value: 21.1%); format: functional
[7] = AUC (0 to t) in Sprague-Dawley rat at 10 mg/kg, po; format: ADME, organism-based; design: dose 10 mg/kg, route po; settings: in vivo
[8] = Cmax in Sprague-Dawley rat at 1 mg/kg, iv; format: ADME, organism-based; design: dose 1 mg/kg, route iv; settings: in vivo
MDA-MB-231 [9] = test: Inhibition of homologous recombinant repair in human MDA-MB-231 cells assessed as down-regulation of Mre11 expression at 5 to 20 uM in by Western blot analysis; format: functional, cell-based; settings: dose 5-20 µM
[10] = Toxicity in BALB/c nude mouse xenografted with human MDA-MB-468 cells assessed as morphological changes in spleen at 40 to 80 mg/kg, ig administered daily for 16 days measured every 3 days by hematoxyin-eosin staining based analysis; format: organism-based; settings: in vivo, po, 384 h, dose 40-80 mg/kg, time 16 day
MDA-MB-468 [11] = test: Downregulation of BRD4 expression level in human MDA-MB-468 cells by Western blot analysis; format: functional, cell-based; settings: dose 5-20 µM, DDE = dose-dependent effect
[12] = Toxicity in BALB/c nude mouse xenografted with human MDA-MB-468 cells assessed as change in body weight at 40 to 80 mg/kg, ig administered daily for 16 days measured every 3 days; format: organism-based; settings: in vivo, po, 384 h, dose 40-80 mg/kg, time 16 day
[13] = target: Bromodomain-containing protein 4 (Homo sapiens, UniProt O60885); test: Inhibition of BRD4 BD1 (unknown origin)
[14] = Toxicity in BALB/c nude mouse xenografted with human MDA-MB-468 cells assessed as morphological changes in heart at 40 to 80 mg/kg, ig administered daily for 16 days measured every 3 days by hematoxyin-eosin staining based analysis; format: organism-based; settings: in vivo, po, 384 h, dose 40-80 mg/kg, time 16 day
[15] = target: Poly [ADP-ribose] polymerase 1 (Homo sapiens, UniProt P09874); test: Inhibition of PARP1 (unknown origin) at 1 uM relative to control
Chain of Poly [ADP-ribose] polymerase 1 (P09874 whole entry): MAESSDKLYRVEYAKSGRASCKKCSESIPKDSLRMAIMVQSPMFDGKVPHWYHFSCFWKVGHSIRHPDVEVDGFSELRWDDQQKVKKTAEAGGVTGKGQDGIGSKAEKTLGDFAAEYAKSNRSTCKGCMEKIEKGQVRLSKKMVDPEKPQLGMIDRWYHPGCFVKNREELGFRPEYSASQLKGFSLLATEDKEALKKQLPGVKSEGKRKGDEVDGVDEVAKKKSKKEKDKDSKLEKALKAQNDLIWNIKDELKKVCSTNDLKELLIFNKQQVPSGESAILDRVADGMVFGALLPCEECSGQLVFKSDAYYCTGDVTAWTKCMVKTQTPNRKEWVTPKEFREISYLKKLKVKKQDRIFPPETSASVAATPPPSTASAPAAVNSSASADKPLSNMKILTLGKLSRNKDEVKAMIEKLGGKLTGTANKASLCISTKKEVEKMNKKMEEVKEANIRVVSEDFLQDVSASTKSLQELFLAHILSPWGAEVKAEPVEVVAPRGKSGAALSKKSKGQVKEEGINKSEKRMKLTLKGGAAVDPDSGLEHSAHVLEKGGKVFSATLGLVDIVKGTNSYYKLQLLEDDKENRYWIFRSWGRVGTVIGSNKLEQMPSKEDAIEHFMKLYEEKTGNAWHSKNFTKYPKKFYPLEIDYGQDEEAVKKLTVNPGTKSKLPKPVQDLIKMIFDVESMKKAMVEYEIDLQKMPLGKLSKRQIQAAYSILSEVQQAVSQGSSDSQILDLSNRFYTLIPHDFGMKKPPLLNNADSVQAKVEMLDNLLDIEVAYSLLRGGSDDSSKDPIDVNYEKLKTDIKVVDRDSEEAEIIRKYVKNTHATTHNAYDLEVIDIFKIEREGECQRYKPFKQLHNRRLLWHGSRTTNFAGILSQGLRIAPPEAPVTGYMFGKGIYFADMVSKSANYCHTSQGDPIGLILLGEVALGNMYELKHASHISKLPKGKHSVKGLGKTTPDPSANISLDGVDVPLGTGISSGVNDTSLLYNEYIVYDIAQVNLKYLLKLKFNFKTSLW

MDA-MB-468 [16] = test: Downregulation of c-Myc expression level in human MDA-MB-468 cells by Western blot analysis; format: functional, cell-based; settings: dose 5-20 µM, DDE = dose-dependent effect
MDA-MB-231 [17] = test: Antitumor activity against human MDA-MB-231 cells xenografted in BALB/c nude mouse assessed as downregulation of […] downstream protein at 40 mg/kg by Western blot analysis; format: functional, organism-based
MDA-MB-468 [18] = test: Inhibition of homologous recombinant repair in human MDA-MB-468 cells assessed as down-regulation of Rad51 expression at 5 to 20 uM by Western blot analysis; format: functional, cell-based; settings: dose 5-20 µM, DDE = dose-dependent effect
MDA-MB-468 [19] = test: Induction of apoptosis in human MDA-MB-468 cells assessed as early apoptotic cells at 20 uM incubated for 72 hrs by annexin V/propidium iodide staining-based flow cytometry analysis (reference value: 4.07%); format: functional
MDA-MB-231 [20] = test: Antitumor activity against human MDA-MB-231 cells xenografted in BALB/c nude mouse assessed as downregulation of Rad51 at 80 mg/kg by Western blot analysis; format: functional, organism-based
MDA-MB-468 [21] = test: Cell cycle arrest in human MDA-MB-468 cells assessed as accumulation at S phase at 20 uM incubated for 72 hrs by propidium iodide staining-based flow cytometry analysis (reference value: 21.1%); format: functional
MDA-MB-468 [22] = test: Cell cycle arrest in human MDA-MB-468 cells assessed as accumulation at G0/G1 phase at 20 uM incubated for 72 hrs by propidium iodide staining-based flow cytometry analysis (reference value: 61.4%); format: functional
MDA-MB-231 [23] = test: Antitumor activity against human MDA-MB-231 cells xenografted in BALB/c nude mouse assessed as tumor growth inhibition at 40 to 80 mg/kg incubated for 30 to 40 mins by Ki-67 staining based immunohistochemical analysis; format: functional, organism-based; settings: dose 40-80 mg/kg, time 30-40 min
[24] = Toxicity in BALB/c nude mouse xenografted with human MDA-MB-468 cells assessed as death at 40 to 80 mg/kg, ig administered daily for 16 days measured every 3 days; format: organism-based; settings: in vivo, po, 384 h, dose 40-80 mg/kg, time 16 day
MDA-MB-468 [25] = test: Cell cycle arrest in human MDA-MB-468 cells assessed as accumulation at G2/M phase at 10 uM incubated for 72 hrs by propidium iodide staining-based flow cytometry analysis (reference value: 16.1%); format: functional
MDA-MB-231 [26] = test: Antiproliferative activity against human MDA-MB-231 cells assessed as reduction in cell viability incubated for 72 hrs by MTT assay; format: functional, cell-based; settings: MDA-MB-231, 72 h
MDA-MB-231 [27] = test: Antitumor activity against human MDA-MB-231 cells xenografted in BALB/c nude mouse assessed as reduction in c-Myc expression at 40 to 80 mg/kg incubated for 30 to 40 mins by immunohistochemical analysis; format: functional, organism-based; settings: dose 40-80 mg/kg, time 30-40 min
[28] = Half life in Sprague-Dawley rat at 1 mg/kg, iv; format: ADME, organism-based; settings: in vivo
[29] = Toxicity in BALB/c nude mouse xenografted with human MDA-MB-468 cells assessed as death at 80 mg/kg, ig administered daily for 16 days measured every 3 days; format: organism-based; settings: in vivo, po, 384 h, time 16 day
[30] = AUC (0 to infinity) in Sprague-Dawley rat at 10 mg/kg, po; format: ADME, organism-based; design: time infinity, dose 10 mg/kg, route po; settings: in vivo
[31] = Toxicity in BALB/c nude mouse xenografted with human MDA-MB-468 cells assessed as morphological changes in lung at 40 to 80 mg/kg, ig administered daily for 16 days measured every 3 days by hematoxyin-eosin staining based analysis; format: organism-based; settings: in vivo, po, 384 h, dose 40-80 mg/kg, time 16 day
MDA-MB-468 [32] = test: Induction of apoptosis in human MDA-MB-468 cells assessed as late apoptotic cells at 5 uM incubated for 72 hrs by annexin V/propidium iodide staining-based flow cytometry analysis (reference value: 1.34%); format: functional
MDA-MB-231 [33] = test: Antitumor activity against human MDA-MB-231 cells xenografted in BALB/c nude mouse assessed as reduction in Rad51 expression at 40 to 80 mg/kg incubated for 30 to 40 mins by immunohistochemical analysis; format: functional, organism-based; settings: dose 40-80 mg/kg, time 30-40 min
MDA-MB-468 [34] = test: Induction of apoptosis in human MDA-MB-468 cells assessed as up-regulation of cleaved caspase 3 protein level at 20 uM incubated for 72 hrs by Western blot analysis; format: functional, cell-based
MDA-MB-468 [35] = test: Cell cycle arrest in human MDA-MB-468 cells assessed as accumulation at G2/M phase at 5 uM incubated for 72 hrs by propidium iodide staining-based flow cytometry analysis (reference value: 16.1%); format: functional
[36] = Toxicity in BALB/c nude mouse xenografted with human MDA-MB-468 cells assessed as morphological changes in heart at 80 mg/kg, ig administered daily for 16 days measured every 3 days by hematoxyin-eosin staining based analysis; format: organism-based; settings: in vivo, po, 384 h, time 16 day

With COc1cc(OC)c2c(=O)[nH]c(-c3cccc(Cc4n[nH]c(=O)c5ccccc45)c3)nc2c1 the AUC(0-t) [1] was 629 ng·h/mL, the inhibition (MDA-MB-468 [2]) was “Dde” and the inhibition (MDA-MB-468 [3]) was “Active”. For the same compound, the Cmax [4] was 242 ng/mL, the Activity (MDA-MB-231 [5]) was “Active” and the Activity (MDA-MB-468 [6]) was 22.2%. For the same compound, the AUC(0-t) [7] was 1490 ng·h/mL, the Cmax [8] was 258 ng/mL and the Activity (MDA-MB-231 [9]) was “Active”. The Activity [10] was “Non-Toxic”, the Activity (MDA-MB-468 [11]) was “Dde” and the Activity [12] was “Non-Toxic”. The IC50 [13] was 251 nM, the Activity [14] was “Non-Toxic” and the inhibition [15] was 79.2%. For the same compound, the Activity (MDA-MB-468 [16]) was “Dde”, the Activity (MDA-MB-231 [17]) was “Active” and the inhibition (MDA-MB-468 [18]) was “Dde”. For the same compound, the Activity (MDA-MB-468 [19]) was 28.26%, the Activity (MDA-MB-231 [20]) was “Active” and the Activity (MDA-MB-468 [21]) was 12.4%. The Activity (MDA-MB-468 [22]) was 74.3%, the Activity (MDA-MB-231 [23]) was “Active” and the Activity [24] was “Non-Toxic”. For the same compound, the Activity (MDA-MB-468 [25]) was 14.5%, the IC50 (MDA-MB-231 [26]) was 6.61 µM and the Activity (MDA-MB-231 [27]) was “Active”. The t1/2 [28] was 3.02 h, the Activity [29] was “Non-Toxic” and the AUC(0-inf) [30] was 1530 ng·h/mL. For the same compound, the Activity [31] was “Non-Toxic”, the Activity (MDA-MB-468 [32]) was 6.08% and the Activity (MDA-MB-231 [33]) was “Active”. The Activity (MDA-MB-468 [34]) was “Active”, the Activity (MDA-MB-468 [35]) was 16.6% and the Activity [36] was “Non-Toxic”.
